Data set [1] in a line: In vitro dissolution test (RespiCell) on fine fraction collected by Fast Screening Impactor. Format: physicochemical. The conditions noted are these: FIG. 3; 800 μg dose, HR RS01 or UHR RS01 vs Nexthaler; PBS with 0.5% SDS, 37 °C. The method, then: In vitro dissolution tests were carried out to compare the performance of the Reference Products and the drug product of the invention at 800 μg, using RespiCell™ (EU registration No 006649570-0001), a vertical diffusion cell apparatus that comprises a 170 cm^3 reservoir filled with the dissolution media and a side arm of 10 cm length. The apparatus is composed of an upper part, the donor chamber, and a lower part, the receptor chamber, linked by a clamp and separated by a glass fiber filter, used as diffusion membrane, and sit horizontally in contact with the dissolution medium. The receptor chamber contains a magnetic stirrer inside it. Type A/E glass fiber filter of 76 mm diameter (PALL Corporation, Port Washington; NY, USA) were employed as diffusion membrane. The dissolution medium employed for the analysis was phosphate-buffer saline (PBS) with 0.5% of Sodium dodecyl sulfate (SDS). RespiCell™ was connected to a heating thermostat (Lauda eco silver E4, DE) set at 37±0.5° C. […] The amount of drug in the samples was assessed by HPLC. The data were expressed as percentage of the compound of formula (I) dissolved and 100% of the dissolution corresponded to the drug amount dissolved at the end of experiment. […] The difference factor (f1) is calculated as follows: […]

The conditions of data set [2]: inhalation; multi-dose Nexthaler vs single-dose Aerolizer; cited from earlier work.

Data on 1 compound can be found in patent US20260083924A1, “CAPSULE INHALER FOR THE ADMINISTRATION OF A PHOSPHODIESTERASE-4 INHIBITOR” (CHIESI FARMACEUTICI S.P.A., priority 2022, published 2026).

For `CS(=O)(=O)Nc1ccc(C(=O)O[C@@H](Cc2c(Cl)c[n+]([O-])cc2Cl)c2ccc(OC(F)F)c(OCC3CC3)c2)cc1OCC1CC1` [compound of formula (I), 3,5-dichloro-4-[(2S)-2-[3-(cyclopropylmethoxy)-4-(difluoromethoxy)phenyl]-2-{[3-(cyclopropylmethoxy)-4-(methanesulfonamido)benzoyl]oxy}ethyl]pyridinel-oxide], the “amount of the compound of formula (I) dissolved, higher in comparison to the Reference Product” value in data set [1] was 7-20%. Also, the “weighted AUC systemic bioavailability, higher via Nexthaler than via Aerolizer” value in data set [2] is on record as “about 30%”.
